Results from ChEMBL document CHEMBL3046635, “Synthesis and Herbicidal Activity of New Pyrazole-4-carboxamide Derivatives” (J Pestic Sci, 2004).
Activity calls are given as the source filed them.

Experiments:
Pontederia vaginalis [1] = test: Post-emergence herbicidal activity against Monochoria vaginalis assessed as bleaching of stem/leaf parts; assay type: functional, organism-based; also: test concentration or dose not given here
Ammannia multiflora [2] = test: Pre-emergence herbicidal activity against Ammannia multiflora assessed as bleaching of stem/leaf parts; assay type: functional, organism-based
Rotala indica [3] = test: Post-emergence herbicidal activity against Rotala indica assessed as bleaching of stem/leaf parts; assay type: functional, organism-based; also: test concentration or dose not given here
Lindernia procumbens [4] = test: Pre-emergence herbicidal activity against Lindernia procumbens assessed as bleaching of stem/leaf parts; assay type: functional, organism-based
Cyperus difformis [5] = test: Post-emergence herbicidal activity against Cyperus difformis assessed as bleaching of stem/leaf parts; assay type: functional, organism-based; also: test concentration or dose not given here
Eleocharis acicularis [6] = test: Post-emergence herbicidal activity against Eleocharis acicularis assessed as bleaching of stem/leaf parts; assay type: functional, organism-based; also: test concentration or dose not given here
Rotala indica [7] = test: Pre-emergence herbicidal activity against Rotala indica assessed as bleaching of stem/leaf parts; assay type: functional, organism-based
[8] = test system: Schoenoplectiella juncoides; test: Pre-emergence herbicidal activity against Schoenoplectiella juncoides assessed as bleaching of stem/leaf parts; assay type: functional, organism-based
[9] = test system: Schoenoplectiella juncoides; test: Post-emergence herbicidal activity against Schoenoplectiella juncoides assessed as bleaching of stem/leaf parts; assay type: functional, organism-based; also: test concentration or dose not given here
Eleocharis acicularis [10] = test: Pre-emergence herbicidal activity against Eleocharis acicularis assessed as bleaching of stem/leaf parts; assay type: functional, organism-based
Cyperus difformis [11] = test: Pre-emergence herbicidal activity against Cyperus difformis assessed as bleaching of stem/leaf parts; assay type: functional, organism-based
Elatine triandra [12] = test: Pre-emergence herbicidal activity against Elatine triandra at 2000 g a.i/ha measured after 14 days; assay type: functional, organism-based
Lindernia procumbens [13] = test: Pre-emergence herbicidal activity against Lindernia procumbens at 2000 g a.i/ha measured after 14 days; assay type: functional, organism-based
Echinochloa oryzicola [14] = test: Pre-emergence herbicidal activity against Echinochloa oryzicola assessed as bleaching of stem/leaf parts; assay type: functional, organism-based
Elatine triandra [15] = test: Pre-emergence herbicidal activity against Elatine triandra assessed as bleaching of stem/leaf parts; assay type: functional, organism-based
Eleocharis acicularis [16] = test: Pre-emergence herbicidal activity against Eleocharis acicularis at 2000 g a.i/ha measured after 14 days; assay type: functional, organism-based
Oryza sativa = test: Phytotoxicity against Oryza sativa cv. Koshihikari (rice) at 2000 g a.i/ha measured after 14 days; assay type: organism-based; conditions: in vivo, 336 h
Echinochloa oryzicola [17] = test: Pre-emergence herbicidal activity against Echinochloa oryzicola at 2000 g a.i/ha measured after 14 days; assay type: functional, organism-based
Cyperus difformis [18] = test: Pre-emergence herbicidal activity against Cyperus difformis at 2000 g a.i/ha measured after 14 days; assay type: functional, organism-based
Elatine triandra [19] = test: Post-emergence herbicidal activity against Elatine triandra assessed as bleaching of stem/leaf parts; assay type: functional, organism-based; also: test concentration or dose not given here
Rotala indica [20] = test: Pre-emergence herbicidal activity against Rotala indica at 2000 g a.i/ha measured after 14 days; assay type: functional, organism-based
Pontederia vaginalis [21] = test: Pre-emergence herbicidal activity against Monochoria vaginalis assessed as bleaching of stem/leaf parts; assay type: functional, organism-based
Pontederia vaginalis [22] = test: Pre-emergence herbicidal activity against Monochoria vaginalis at 2000 g a.i/ha measured after 14 days; assay type: functional, organism-based
Lindernia procumbens [23] = test: Post-emergence herbicidal activity against Lindernia procumbens assessed as bleaching of stem/leaf parts; assay type: functional, organism-based; also: test concentration or dose not given here
[24] = test system: Schoenoplectiella juncoides; test: Pre-emergence herbicidal activity against Schoenoplectiella juncoides at 2000 g a.i/ha measured after 14 days; assay type: functional, organism-based
Echinochloa oryzicola [25] = test: Post-emergence herbicidal activity against Echinochloa oryzicola assessed as bleaching of stem/leaf parts; assay type: functional, organism-based; also: test concentration or dose not given here
Ammannia multiflora [26] = test: Pre-emergence herbicidal activity against Ammannia multiflora at 2000 g a.i/ha measured after 14 days; assay type: functional, organism-based
Ammannia multiflora [27] = test: Post-emergence herbicidal activity against Ammannia multiflora assessed as bleaching of stem/leaf parts; assay type: functional, organism-based; also: test concentration or dose not given here

Measured: Activity

CCCN(CC)C(=O)c1cn(C)nc1OCc1cc(C(F)(F)F)cc(C(F)(F)F)c1
Non-toxic: Oryza sativa
inactive: Elatine triandra [12] | Lindernia procumbens [13] | Eleocharis acicularis [16] | Echinochloa oryzicola [17] | Cyperus difformis [18] | Rotala indica [20] | Pontederia vaginalis [22] | [24] | Ammannia multiflora [26]
active: all other assays above

CCCN(CC)C(=O)c1cn(C)nc1OCc1cc(F)cc(F)c1
inactive: Eleocharis acicularis [16]
Non-toxic: Oryza sativa
active: all other assays above

CCCN(CC)C(=O)c1cn(C)nc1OCc1cccc(Br)c1
inactive: Elatine triandra [12] | Lindernia procumbens [13] | Cyperus difformis [18] | Rotala indica [20] | Ammannia multiflora [26]
Non-toxic: Oryza sativa
active: all other assays above

CCCN(CC)C(=O)c1cn(C)nc1OCc1ccc(C)cc1
Non-toxic: Oryza sativa
inactive: Elatine triandra [12] | Lindernia procumbens [13] | Eleocharis acicularis [16] | Echinochloa oryzicola [17] | Cyperus difformis [18] | Rotala indica [20] | Pontederia vaginalis [22] | [24] | Ammannia multiflora [26]
active: all other assays above

CCCN(CC)C(=O)c1cn(C)nc1OC(C)c1cccc(Br)c1 (stereo unspecified)
inactive: Elatine triandra [12] | Lindernia procumbens [13] | Eleocharis acicularis [16] | Echinochloa oryzicola [17] | Cyperus difformis [18] | Rotala indica [20] | Pontederia vaginalis [22] | [24] | Ammannia multiflora [26]
Non-toxic: Oryza sativa
active: all other assays above

C#CCOc1nn(C)cc1C(=O)N(CC)CCC
inactive: Elatine triandra [12] | Lindernia procumbens [13] | Eleocharis acicularis [16] | Echinochloa oryzicola [17] | Cyperus difformis [18] | Rotala indica [20] | Pontederia vaginalis [22] | [24] | Ammannia multiflora [26]
Non-toxic: Oryza sativa
active: all other assays above

CCCN(CC)C(=O)c1cn(C)nc1OCc1ccc(C(F)(F)F)cc1
Non-toxic: Oryza sativa
inactive: Eleocharis acicularis [16] | Echinochloa oryzicola [17] | Cyperus difformis [18]
active: all other assays above
